Test results published in ChEMBL document CHEMBL3751767, “Synthesis, in vitro and in vivo anticancer activities of novel 4-substituted 1,2-bis(4-chlorophenyl)-pyrazolidine-3,5-dione derivatives” (Medchemcomm, 2015).

Assays:
[1] = Cytotoxicity against human MGC803 cells assessed as reduction in cell viability after 72 hrs by MTT assay; type: functional, cell-based; conditions: MGC-803, 72 h
[2] = Cytotoxicity against human EC109 cells assessed as reduction in cell viability after 72 hrs by MTT assay; type: functional, cell-based; conditions: ECa-109, 72 h
MCF7 = experiment: Cytotoxicity against human MCF7 cells assessed as reduction in cell viability after 72 hrs by MTT assay; type: functional, cell-based; conditions: MCF7, 72 h
[3] = Cytotoxicity against human SMMC7721 cells assessed as reduction in cell viability after 72 hrs by MTT assay; type: functional, cell-based; conditions: SMMC-7721, 72 h
[4] = Antitumor activity against human MGC803 cells xenografted in nude mouse assessed as reduction in tumor weight at 30 mg/kg, po qd for 28 days relative to control; type: functional, MGC-803; design: scale not given: the % may be the effect or the level left

With O=C1C(=Cc2ccc(F)cc2)C(=O)N(c2ccc(Cl)cc2)N1c1ccc(Cl)cc1 the IC50 [1] was 26 µM, the IC50 [2] was 35.6 µM and the IC50 (MCF7) was 31.4 µM. The IC50 [3] was 23.3 µM.
O=C1C(=Cc2c[nH]c3ccccc23)C(=O)N(c2ccc(Cl)cc2)N1c1ccc(Cl)cc1 gave an IC50 [1] of 21.8 µM, an IC50 [2] of 23.4 µM and an IC50 (MCF7) of 34.2 µM. For the same molecule, the IC50 [3] was 19.6 µM.
Work on CN(C)c1ccc(C=C2C(=O)N(c3ccc(Cl)cc3)N(c3ccc(Cl)cc3)C2=O)cc1 yielded an IC50 [1] of 80.2 µM, an IC50 [2] greater than 128 µM and an IC50 (MCF7) greater than 128 µM. It also gave an IC50 [3] greater than 128 µM.
Work on O=C1C(=Cc2ccc(Cl)cc2)C(=O)N(c2ccc(Cl)cc2)N1c1ccc(Cl)cc1 yielded an IC50 [1] of 32.6 µM, an IC50 [2] of 17.3 µM and an IC50 (MCF7) of 28.5 µM. The IC50 [3] was 30.9 µM.
For COc1cc(C=C2C(=O)N(c3ccc(Cl)cc3)N(c3ccc(Cl)cc3)C2=O)cc(OC)c1OC, the IC50 [1] was 17.3 µM, the IC50 [2] was 10.1 µM and the IC50 (MCF7) was 16.2 µM. It also gave an IC50 [3] of 29.5 µM.
Molecule O=C1C(=Cc2ccc(Br)cc2)C(=O)N(c2ccc(Cl)cc2)N1c1ccc(Cl)cc1 has an IC50 [1] of 16.9 µM, an IC50 [2] of 12.3 µM and an IC50 (MCF7) of 30.4 µM. For the same molecule, the IC50 [3] was 16.6 µM.
O=C1C(=Cc2ccc(F)c(F)c2)C(=O)N(c2ccc(Cl)cc2)N1c1ccc(Cl)cc1 showed an IC50 [1] of 35.7 µM, an IC50 [2] of 13.1 µM and an IC50 (MCF7) of 22 µM. For the same molecule, the IC50 [3] was 35.8 µM.
CCCCCOC(=O)Nc1nc(=O)n([C@@H]2O[C@H](C)[C@@H](O)[C@H]2O)cc1F [CAPECITABINE] showed an Activity [4] of 62.7%.
In the case of COc1ccccc1C=C1C(=O)N(c2ccc(Cl)cc2)N(c2ccc(Cl)cc2)C1=O, the IC50 [1] is reported as 28.6 µM, the IC50 [2] is reported as 30.4 µM and the IC50 (MCF7) is reported as 26.3 µM. The IC50 [3] was 25.8 µM.
For O=C1C(=Cc2ccc(Cl)cc2Cl)C(=O)N(c2ccc(Cl)cc2)N1c1ccc(Cl)cc1, the IC50 [1] was greater than 128 µM, the IC50 [2] was 60.2 µM and the IC50 (MCF7) was greater than 128 µM. It also gave an IC50 [3] greater than 128 µM.
With COc1cccc(C=C2C(=O)N(c3ccc(Cl)cc3)N(c3ccc(Cl)cc3)C2=O)c1 the IC50 [1] was 26.6 µM, the IC50 [2] was 29 µM and the IC50 (MCF7) was 18.1 µM. It also gave an IC50 [3] of 30.2 µM.
Molecule CCC(C)=C1C(=O)N(c2ccc(Cl)cc2)N(c2ccc(Cl)cc2)C1=O has an IC50 [1] of 66.5 µM, an IC50 [2] of 41.1 µM and an IC50 (MCF7) of 41.6 µM. For the same molecule, the IC50 [3] was 49.2 µM.
Work on O=C1C(=Cc2ccccc2)C(=O)N(c2ccc(Cl)cc2)N1c1ccc(Cl)cc1 yielded an IC50 [1] of 27.2 µM, an IC50 [2] of 32.7 µM and an IC50 (MCF7) of 20.2 µM. For the same molecule, the IC50 [3] was 26.2 µM.
O=c1[nH]cc(F)c(=O)[nH]1 [FLUOROURACIL] showed an IC50 [1] of 9.2 µM, an IC50 [2] of 15.9 µM and an IC50 (MCF7) of 13.5 µM. It also gave an IC50 [3] of 14.2 µM.
CC(C)=C1C(=O)N(c2ccc(Cl)cc2)N(c2ccc(Cl)cc2)C1=O gave an IC50 [1] of 39 µM, an IC50 [2] of 42.1 µM and an IC50 (MCF7) of 39.6 µM. For the same molecule, the IC50 [3] was 45.6 µM.
Molecule CC(=C1C(=O)N(c2ccc(Cl)cc2)N(c2ccc(Cl)cc2)C1=O)c1ccc(O)cc1 has an IC50 [1] of 42.8 µM, an IC50 [2] of 55.6 µM and an IC50 (MCF7) of 76.5 µM. It also gave an IC50 [3] of 57 µM.
In the case of O=C1C(=Cc2ccco2)C(=O)N(c2ccc(Cl)cc2)N1c1ccc(Cl)cc1, the IC50 [1] is reported as 12.8 µM, the IC50 [2] is reported as 14.3 µM and the IC50 (MCF7) is reported as 20.3 µM. For the same molecule, the IC50 [3] was 19.5 µM.
With COc1ccc(C=C2C(=O)N(c3ccc(Cl)cc3)N(c3ccc(Cl)cc3)C2=O)cc1 the IC50 [1] was greater than 128 µM, the IC50 [2] was greater than 128 µM and the IC50 (MCF7) was greater than 128 µM. For the same molecule, the IC50 [3] was greater than 128 µM.
O=C1C(=Cc2cccc(Cl)c2)C(=O)N(c2ccc(Cl)cc2)N1c1ccc(Cl)cc1 gave an IC50 [1] of 14.4 µM, an IC50 [2] of 22.6 µM and an IC50 (MCF7) of 18.3 µM. It also gave an IC50 [3] of 20.2 µM.
COc1cc(C=C2C(=O)N(c3ccc(Cl)cc3)N(c3ccc(Cl)cc3)C2=O)ccc1O showed an IC50 [1] of 21.8 µM, an IC50 [2] of 7.1 µM and an IC50 (MCF7) of 22.8 µM. It also gave an IC50 [3] of 64.9 µM.
O=C1C(=Cc2ccc(O)cc2)C(=O)N(c2ccc(Cl)cc2)N1c1ccc(Cl)cc1 showed an IC50 [1] of 19.5 µM, an IC50 [2] of 34.2 µM and an IC50 (MCF7) of 23.2 µM. For the same molecule, the IC50 [3] was 20.6 µM.
With COc1cccc(C=C2C(=O)N(c3ccc(Cl)cc3)N(c3ccc(Cl)cc3)C2=O)c1O the IC50 [1] was 24.3 µM, the IC50 [2] was 39 µM and the IC50 (MCF7) was 26.7 µM. The IC50 [3] was 64.9 µM.
COc1ccc(C=C2C(=O)N(c3ccc(Cl)cc3)N(c3ccc(Cl)cc3)C2=O)cc1OC gave an IC50 [1] greater than 128 µM, an IC50 [2] greater than 128 µM and an IC50 (MCF7) greater than 128 µM. For the same molecule, the IC50 [3] was greater than 128 µM.
For COc1cccc(C=C2C(=O)N(c3ccc(Cl)cc3)N(c3ccc(Cl)cc3)C2=O)c1OC, the IC50 [1] was 29.6 µM, the IC50 [2] was 6.8 µM and the IC50 (MCF7) was 11.9 µM. It also gave an IC50 [3] of 14.1 µM.
